IC50 data for 23 molecules are collected here from patent publication US10065941B2, “Aminotriazine derivative and pharmaceutical composition comprising the same” (Shionogi & Co., Ltd., priority 2013, dated 2018).

The target in the assay is human P2X3 receptor (Homo sapiens (Human), UniProt P56373). The experiment in a line: Evaluation of human P2X3 receptor inhibitory activity (Test Example 1). The assay is classed as cell-based. As to conditions: C6BU-1 cell transfected with human P2X3 receptor gene, FLIPR 384. The essentials:
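FLIPR calcium read-out: signal taken as peak fluorescence after ATP addition divided by starting fluorescence, and IC50 calculated from it. Compound added 5 min before 150 nM ATP solution (pre-dispense stock) to Fluo-3-AM-loaded C6BU-1 cells stably transfected with human P2X3; HEPES buffer pH 7.5 with probenecid.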

The structures appear in SMILES notation.

human P2X3 receptor, sequence (P56373 whole entry): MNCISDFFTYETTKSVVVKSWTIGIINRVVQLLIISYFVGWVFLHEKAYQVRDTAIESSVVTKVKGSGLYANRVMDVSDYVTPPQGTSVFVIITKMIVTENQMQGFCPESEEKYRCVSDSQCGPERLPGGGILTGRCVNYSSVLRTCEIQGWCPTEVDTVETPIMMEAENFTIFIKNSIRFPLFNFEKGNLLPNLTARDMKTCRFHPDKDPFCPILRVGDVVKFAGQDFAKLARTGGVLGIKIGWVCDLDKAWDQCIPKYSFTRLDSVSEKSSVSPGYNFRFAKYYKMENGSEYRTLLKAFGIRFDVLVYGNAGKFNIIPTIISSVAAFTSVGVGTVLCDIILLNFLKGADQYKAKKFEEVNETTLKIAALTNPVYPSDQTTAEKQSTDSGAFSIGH

With `C[C@H](CC(=O)O)n1c(=O)[nH]/c(=N\c2ccc(Oc3ccc(F)cn3)cc2)n(Cc2ccc(Cl)cc2)c1=O` [Compound I-165], the IC50 (as a rule, the concentration at which inhibition is half-maximal) amounted to 15 nM. Molecule `C[C@@H](Cn1c(=O)[nH]/c(=N\c2ccc(Oc3cc(Cl)ncn3)cc2)n(Cc2ccc(Cl)cc2)c1=O)C(=O)O` [Compound R-124] returned an IC50 of 9 nM. `CCc1oc2ccc(/N=c3\[nH]c(=O)n([C@H]4C[C@H](C(=O)O)C4)c(=O)n3Cc3ccc(Cl)cc3)cc2c1C` [Compound R-023] yielded an IC50 of 21 nM. The molecule `C[C@@H](Cn1c(=O)[nH]/c(=N\c2ccc(Oc3ccc(F)cn3)cc2)n(Cc2ccc(Cl)s2)c1=O)C(=O)O` [Compound I-274] had an IC50 of 5 nM. The molecule `CCc1oc2ccc(/N=c3\[nH]c(=O)n(C[C@H](C)C(=O)O)c(=O)n3Cc3ccc(C)cc3)cc2c1C` [Compound R-222] registered an IC50 of 9 nM. `CC(C)(Cn1c(=O)[nH]/c(=N\c2ccc(Oc3ncccc3C#N)cc2)n(Cc2ccc(Cl)cc2)c1=O)C(=O)O` [Compound I-048]: the IC50 is 30 nM. `COC(=O)[C@H](C)[C@H](C)n1c(=O)[nH]/c(=N\c2ccc(Oc3ccccn3)c(C)c2)n(Cc2ccc(Cl)cc2)c1=O` [Compound I-226]: half-maximal inhibition (IC50) required 38 nM.

In turn, `Cc1ccc(Cn2c(=O)n(CC(C)(C)C(=O)O)c(=O)[nH]/c2=N\c2ccc(Oc3ccccn3)cc2)cc1` [Compound I-155] displayed an IC50 of 8 nM. The molecule `COC(=O)[C@H](C)[C@H](C)n1c(=O)[nH]/c(=N\c2ccc(Oc3cncc(F)c3)c(F)c2)n(Cc2ccc(Cl)cc2)c1=O` [Compound R-187] registered an IC50 of 21 nM. With `CCOC(=O)Cn1c(=O)[nH]/c(=N\c2ccc(Oc3ccc(Cl)cn3)cc2)n(Cc2ccc(Cl)cc2)c1=O` [Compound R-310] the figure was 4 nM; with `COC(=O)[C@@H](C)Cn1c(=O)[nH]/c(=N\c2ccc(Oc3cnccn3)cc2)n(Cc2ccc(Cl)cc2)c1=O` [Compound R-017], 6 nM. Regarding `C[C@@H](C(=O)O)[C@H](C)n1c(=O)[nH]/c(=N\c2ccc(Oc3cnccn3)c(F)c2)n(Cc2ccc(Cl)cc2)c1=O` [Compound R-125], 7 nM corresponded to half-maximal inhibition (IC50).

The molecule `COC(=O)CCn1c(=O)[nH]/c(=N\c2ccc(Oc3ccc(C(C)O)cn3)cc2)n(Cc2ccc(Cl)cc2)c1=O` (centres unmarked) [Compound R-304] returned an IC50 of 4 nM. Regarding `COC(=O)[C@@H](C)Cn1c(=O)[nH]/c(=N\c2ccc(Oc3ccccn3)cc2)n(Cc2ccc(Cl)cc2)c1=O` [Compound I-126], half-maximal inhibition (IC50) was put at 5 nM. Consider `COC(=O)[C@@H](C)Cn1c(=O)[nH]/c(=N\c2ccc(Oc3ccccn3)cc2)n(Cc2ccc(Cl)s2)c1=O` [Compound I-271], for which the midpoint of inhibition, the IC50, lay at 10 nM. Regarding `C[C@@H](Cn1c(=O)[nH]/c(=N\c2ccc(Oc3ccccn3)cc2)n(Cc2ccc(CF)cc2)c1=O)C(=O)O` [Compound I-214], half-maximal inhibition (IC50) required 11 nM. `COC(=O)[C@@H](C)Cn1c(=O)[nH]/c(=N\c2ccc(Oc3ccnc(Cl)c3)cc2)n(Cc2ccc(Cl)cc2)c1=O` [Compound R-086] came in with an IC50 of 7 nM. In turn, `Cc1cc(/N=c2\[nH]c(=O)n([C@@H](C)[C@@H](C)C(=O)O)c(=O)n2Cc2ccc(Cl)cc2)ccc1Oc1cncc(F)c1` [Compound R-188] gave an IC50 of 9 nM.

`CCc1ccc(Oc2ccc(/N=c3\[nH]c(=O)n(C[C@H](C)C(=O)O)c(=O)n3Cc3ccc(C)cc3)cc2)nc1` [Compound I-275] showed an IC50 of 4 nM. `CC(C)(Cn1c(=O)[nH]/c(=N\c2ccc(Oc3ncccn3)c(F)c2)n(Cc2ccc(Cl)cc2)c1=O)C(=O)O` [Compound R-165] yielded an IC50 of 14 nM.

With `COC(=O)C(C)(C)Cn1c(=O)[nH]/c(=N\c2ccc(Oc3cnccn3)c(C)c2)n(Cc2ccc(Cl)cc2)c1=O` [Compound R-129], the IC50 was 7 nM. The molecule `COC(=O)[C@H](C)[C@H](C)n1c(=O)[nH]/c(=N\c2ccc(Oc3ccc(OC(F)F)cn3)cc2)n(Cc2ccc(C)cc2)c1=O` [Compound I-137] had a concentration for half-maximal inhibition (IC50) of 14 nM.

`CCn1c(=O)[nH]/c(=N\c2ccc(Oc3ccc(Cl)nc3C#N)cc2)n(Cc2ccc(Cl)cc2)c1=O` [Compound R-166] registered an IC50 of 48 nM.
